# Results taken from patent publication US20150105252A1, “SUBSTITUTED PYRAZOLES AS HERBICIDES” (E I DU PONT DE NEMOURS AND COMPANY, priority 2013, published 2015).
# Experiments:
# pigweed [1] = assay: Test A preemergence; format: in vivo, Amaranthus retroflexus; conditions: preemergence; for Pigweed plant response rating (0 to 100 scale): 125 g ai/ha, visual injury approx. 10 days after treatment; for Pigweed plant response rating: 500 g ai/ha, visual injury after approx. 10 days, 0 to 100 scale (0 no effect, 100 complete control)
# Procedure, shortened: (§1)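 Both timings tested concurrently in loam/sand soil: preemergence by directed soil spray, postemergence on plants of 2–10 cm at the one- to two-leaf stage. Greenhouse holding period was approximately 10 days before visual injury assessment (0–100, 0 = no effect).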
# velvetleaf = assay: Test A preemergence; format: in vivo, Abutilon theophrasti; conditions: preemergence; for Velvetleaf plant response rating (0 to 100 scale): 125 g ai/ha, visual injury approx. 10 days after treatment; for Velvetleaf plant response rating: 500 g ai/ha, visual injury after approx. 10 days, 0 to 100 scale (0 no effect, 100 complete control)
# Procedure, shortened: as §1
# barnyardgrass = assay: Test B flood; format: in vivo, Echinochloa crus-galli; conditions: 250 g ai/ha, visual rating on 0 to 100 scale (0 no effect, 100 complete control), 13 to 15 days
# Procedure, shortened: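 Greenhouse assay lasting 13 to 15 days. Treatment was into water flooding pots 3 cm deep, at the 2-leaf stage, with that level sustained afterwards. Scores compare treated with control plants visually, 100 denoting complete control and 0 no effect; a dash marks no test result.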
# ryegrass, Italian = assay: Test C preemergence; format: in vivo, Lolium multiflorum; conditions: preemergence; for Plant response rating, Ryegrass, Italian: 125 g ai/ha, scale 0 to 100, 0 = no effect, 100 = complete control
# Procedure, shortened: (§2)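 Visual control ratings on a 0–100 scale (100 = complete control) made against untreated controls after 13 to 15 days in greenhouse. Compounds applied in surfactant-containing solvent mixture, either preemergence to loam/sand-sown seeds or postemergence to 1- to 4-leaf plants (2–18 cm) in peat medium.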
# wheat [2] = assay: Test C preemergence; format: in vivo, Triticum aestivum; conditions: preemergence; for Plant response rating, Wheat: 125 g ai/ha, scale 0 to 100, 0 = no effect, 100 = complete control
# Procedure, shortened: as §2
# galium = assay: Test C preemergence; format: in vivo, Galium aparine; conditions: preemergence; for Plant response rating, Galium: 125 g ai/ha, scale 0 to 100, 0 = no effect, 100 = complete control
# Procedure, shortened: as §2
# oilseed rape = assay: Test C preemergence; format: in vivo, Brassica napus; conditions: preemergence; for Plant response rating, Oilseed Rape: 125 g ai/ha, scale 0 to 100, 0 = no effect, 100 = complete control
# Procedure, shortened: as §2
# wheat [3] = assay: Test C postemergence; format: in vivo, Triticum aestivum; conditions: postemergence; for Plant response rating, Wheat: 250 g ai/ha, scale 0 to 100 (0 no effect, 100 complete control); for Wheat plant response rating: scale 0 to 100
# Procedure, shortened: as §2
# corn = assay: Test C postemergence; format: in vivo, Zea mays; conditions: for Plant response rating (scale of 0 to 100 where 0 is no effect and 100 is complete control), Corn: Postemergence, 31 g ai/ha, visually evaluated after 13 to 15 days; for Corn plant response rating / Plant response rating, Corn: postemergence; for Corn plant response rating: 62 g ai/ha, scale 0 to 100
# Procedure, shortened: as §2
# johnsongrass = assay: Test C postemergence; format: in vivo, Sorghum halepense; conditions: for Plant response rating (scale of 0 to 100 where 0 is no effect and 100 is complete control), Johnsongrass: Postemergence, 31 g ai/ha, visually evaluated after 13 to 15 days; for Johnsongrass plant response rating / Plant response rating, Johnsongrass: postemergence; for Johnsongrass plant response rating: 62 g ai/ha, scale 0 to 100
# Procedure, shortened: as §2
# pigweed [4] = assay: Test C postemergence; format: in vivo, Amaranthus retroflexus; conditions: postemergence; for Pigweed plant response rating: 62 g ai/ha, scale 0 to 100
# Procedure, shortened: as §2
# ragweed = assay: Test C postemergence; format: in vivo, Ambrosia elation; conditions: postemergence
# Procedure, shortened: as §2
# soybean = assay: Test C postemergence; format: in vivo, Glycine max; conditions: postemergence; for Plant response rating, Soybean: 250 g ai/ha, scale 0 to 100 (0 no effect, 100 complete control); for Soybean plant response rating: 125 g ai/ha, scale 0 to 100, 0 no effect, 100 complete control
# Procedure, shortened: as §2
# chickweed = assay: Test C postemergence; format: in vivo, Stellaria media; conditions: for Plant response rating (scale of 0 to 100 where 0 is no effect and 100 is complete control), Chickweed: Postemergence, 31 g ai/ha, visually evaluated after 13 to 15 days; for Chickweed plant response rating / Plant response rating, Chickweed: postemergence; for Chickweed plant response rating: 62 g ai/ha, scale 0 to 100
# Procedure, shortened: as §2
# [5] = 31 g ai/ha, visual rating, scale 0 to 100 (0 no effect, 100 complete control), 13 to 15 days
# [6] = 62 g ai/ha, scale 0 to 100 (0 no effect, 100 complete control), 13 to 15 days
# [7] = 250 g ai/ha, scale 0 to 100, 0 is no effect, 100 is complete control
# [8] = 250 g ai/ha, scale 0 to 100 (0 no effect, 100 complete control)
# [9] = 125 g ai/ha, scale 0 to 100, 0 no effect, 100 complete control
structure (smiles),measurement,setting,value
Cc1cc(C(=O)NC(C)C)nn1Cc1ccnc(C(F)(F)F)c1 [Compound 197],Pigweed plant response rating (0 to 100 scale),pigweed [1],100
same,Pigweed plant response rating,pigweed [1],100
same,Velvetleaf plant response rating (0 to 100 scale),velvetleaf,70
same,Velvetleaf plant response rating,velvetleaf,100
same,"Plant response rating, Barnyardgrass",barnyardgrass,10
same,"Ryegrass, Italian plant response rating","ryegrass, Italian; [5]",15
same,"Ryegrass, Italian plant response rating","ryegrass, Italian; [6]",35
same,"Plant response rating, Ryegrass, Italian","ryegrass, Italian; 13 to 15 days",85
same,"Ryegrass, Italian plant response rating","ryegrass, Italian; [7]",90
same,Wheat plant response rating,wheat [2]; [5],0
same,Wheat plant response rating,wheat [2]; [6],0
same,"Plant response rating, Wheat",wheat [2]; 13 to 15 days,5
same,Wheat plant response rating,wheat [2]; [7],80
same,Galium plant response rating,galium; [5],90
same,Galium plant response rating,galium; [6],100
same,"Plant response rating, Galium",galium; 13 to 15 days,98
same,Galium plant response rating,galium; [7],95
same,Oilseed Rape plant response rating,oilseed rape; [5],80
same,Oilseed Rape plant response rating,oilseed rape; [6],95
same,"Plant response rating, Oilseed Rape",oilseed rape; 13 to 15 days,95
same,Oilseed Rape plant response rating,oilseed rape; [7],100
same,"Plant response rating, Wheat",wheat [3],5
same,Wheat plant response rating,wheat [3],5
same,"Plant response rating (scale of 0 to 100 where 0 is no effect and 100 is complete control), Corn",corn,5
same,Corn plant response rating,corn,5
same,"Plant response rating, Corn",corn; [8],10
same,"Plant response rating, Corn",corn; [9],5
same,"Plant response rating (scale of 0 to 100 where 0 is no effect and 100 is complete control), Johnsongrass",johnsongrass,0
same,Johnsongrass plant response rating,johnsongrass,65
same,"Plant response rating, Johnsongrass",johnsongrass; [8],5
same,"Plant response rating, Johnsongrass",johnsongrass; [9],0
same,Pigweed plant response rating,pigweed [4],60
same,"Plant response rating, Pigweed",pigweed [4]; [8],70
same,"Plant response rating, Pigweed",pigweed [4]; [9],65
same,"Plant response rating, Ragweed",ragweed; [8],55
same,"Plant response rating, Ragweed",ragweed; [9],40
same,"Plant response rating, Soybean",soybean,95
same,Soybean plant response rating,soybean,90
same,"Plant response rating (scale of 0 to 100 where 0 is no effect and 100 is complete control), Chickweed",chickweed,50
same,Chickweed plant response rating,chickweed,55
same,"Plant response rating, Chickweed",chickweed; [8],80
same,"Plant response rating, Chickweed",chickweed; [9],60
CCCNC(=O)c1cc(CCC)n(Cc2cc(C(F)(F)F)nn2C)n1 [Compound 198],Pigweed plant response rating (0 to 100 scale),pigweed [1],100
same,Pigweed plant response rating,pigweed [1],100
same,Velvetleaf plant response rating (0 to 100 scale),velvetleaf,30
same,Velvetleaf plant response rating,velvetleaf,100
same,"Plant response rating, Barnyardgrass",barnyardgrass,60
same,"Ryegrass, Italian plant response rating","ryegrass, Italian; [5]",25
same,"Ryegrass, Italian plant response rating","ryegrass, Italian; [6]",70
same,"Plant response rating, Ryegrass, Italian","ryegrass, Italian; 13 to 15 days",90
same,"Ryegrass, Italian plant response rating","ryegrass, Italian; [7]",90
same,Wheat plant response rating,wheat [2]; [5],5
same,Wheat plant response rating,wheat [2]; [6],35
same,"Plant response rating, Wheat",wheat [2]; 13 to 15 days,90
same,Wheat plant response rating,wheat [2]; [7],90
same,Galium plant response rating,galium; [5],98
same,Galium plant response rating,galium; [6],95
same,"Plant response rating, Galium",galium; 13 to 15 days,100
same,Galium plant response rating,galium; [7],100
same,Oilseed Rape plant response rating,oilseed rape; [5],95
same,Oilseed Rape plant response rating,oilseed rape; [6],100
same,"Plant response rating, Oilseed Rape",oilseed rape; 13 to 15 days,100
same,Oilseed Rape plant response rating,oilseed rape; [7],100
same,"Plant response rating, Wheat",wheat [3],10
same,Wheat plant response rating,wheat [3],5
same,"Plant response rating (scale of 0 to 100 where 0 is no effect and 100 is complete control), Corn",corn,5
same,Corn plant response rating,corn,10
same,"Plant response rating, Corn",corn; [8],15
same,"Plant response rating, Corn",corn; [9],10
same,"Plant response rating (scale of 0 to 100 where 0 is no effect and 100 is complete control), Johnsongrass",johnsongrass,5
same,Johnsongrass plant response rating,johnsongrass,5
same,"Plant response rating, Johnsongrass",johnsongrass; [8],10
same,"Plant response rating, Johnsongrass",johnsongrass; [9],5
same,Pigweed plant response rating,pigweed [4],60
same,"Plant response rating, Pigweed",pigweed [4]; [8],90
same,"Plant response rating, Pigweed",pigweed [4]; [9],80
same,"Plant response rating, Ragweed",ragweed; [8],80
same,"Plant response rating, Ragweed",ragweed; [9],55
same,"Plant response rating, Soybean",soybean,95
same,Soybean plant response rating,soybean,95
same,"Plant response rating (scale of 0 to 100 where 0 is no effect and 100 is complete control), Chickweed",chickweed,70
same,Chickweed plant response rating,chickweed,70
same,"Plant response rating, Chickweed",chickweed; [8],80
same,"Plant response rating, Chickweed",chickweed; [9],80
